“Also recorded” adds a separate entry of the source. Ends that are not written are not given here.

The subject of the first series is HCV genome-expressing RzM6 cells. Kind of series: Cytolysis assay against HCV genome-expressing cells. The class given is cell-based, human. The following applies: RzM6 cells vs HepG2 control; E/T ratio 10; 3 hours; FIG. 4. The source says:
RzM6 cells were formed by transfecting HepG2, which is a human liver cell strain, with an HCV gene that had been modified so as to be able to conditionally induce expression of an HCV1b full genome (AY045702) in the presence of Cre (Activation of the CK1-CDK-Rb-E2F pathway in full genome hepatitis C virus-expressing cells. Tsukiyama-Kohara et al., J. Biol. Chem. 279, 14531-14541, 2004, RzM6 being supplied by Dr. Michinori Obara, Tokyo Metropolitan Institute of Medical Science).
In the HCV expression method, since the same RzM6 cells are doubly transfected with the Cre gene inserted in a conditional expression cassette arranged downstream of a Tamoxifen-inducible promoter, by adding tamoxifen, expression of Cre is induced, and as a result expression of the HCV gene can be induced. The RzM6 cells for which expression of the HCV gene was induced were labeled with ^51Cr by the same method as for the C1R-A24 cells, thus serving as target cells.
The cytotoxic T-cells prepared above and RzM6 target cells or HepG2 cells with no HCV introduced as a control were mixed at an E/T ratio of 10 and allowed to stand at 37° C. for 3 hours, and the radioactivity of ^51Cr released into the culture supernatant was measured.
As for ILMTHFFSI [SEQ ID NO: 13], the “cytolytic activity specific to HCV-expressing cells by the cytotoxic T-cells” value (from here on “cytolytic activity specific”) is reported as “a cytolytic activity specific to HCV-expressing cells by the cytotoxic T-cells was exhibited”.

Regarding ILPCSFTTL [SEQ ID NO: 4], the “cytolytic activity specific” value is “a cytolytic activity specific to HCV-expressing cells by the cytotoxic T-cells was exhibited”.

For ITYSTYCKF [SEQ ID NO: 9], the “cytolytic activity specific” value is listed as “a cytolytic activity specific to HCV-expressing cells by the cytotoxic T-cells was exhibited”.

On to ALYGVYPLL [SEQ ID NO: 5], for which the “cytolytic activity specific” value is “a cytolytic activity specific to HCV-expressing cells by the cytotoxic T-cells was exhibited”.

In the case of WHYPCTVNF [SEQ ID NO: 2], the “cytolytic activity specific” value is reported as “a cytolytic activity specific to HCV-expressing cells by the cytotoxic T-cells was exhibited”.

For the sequence RYAPACKPL [SEQ ID NO: 10], the “cytolytic activity specific” value is given as “a cytolytic activity specific to HCV-expressing cells by the cytotoxic T-cells was exhibited”.

As to SYTWTGALI [SEQ ID NO: 12], the “cytolytic activity specific” value is recorded as “a cytolytic activity specific to HCV-expressing cells by the cytotoxic T-cells was exhibited”.

As to AYSQQTRGL [SEQ ID NO: 8], the “cytolytic activity specific” value is reported as “a cytolytic activity specific to HCV-expressing cells by the cytotoxic T-cells was exhibited”.

In the next series the test system is peptide-loaded C1R-A24 cells and T2-A24 cells. Briefly: Cytotoxic T-cell induction experiment (51Cr release, human PBMCs). Format: cell-based. The conditions noted are these: peptide 1 μM; blood samples from 8 (or 7) people; E/T ratio 10 to 20; FIG. 2 and FIG. 3. As for the experimental part: The following experiment was carried out using a human blood sample.
Blood was sampled from a hepatitis C patient or a healthy individual from whom informed consent had been obtained in advance.
To blood cells (Peripheral blood mononuclear cells: PBMCs) sown on 96 well plates peptides of SEQ ID NOS: 1 to 14 were added weekly for 5 weeks so as to give final concentrations of 1 μM, and cytotoxic T-cells were activated in media to which was added 10% FCS and 5 ng/mL of IL-2, thus giving T-cell samples.
Cells were labeled with ^51Cr by adding the sodium salt of ^51Cr (sodium chromate) to C1R-A24 cells and T2-A24 cells (human B/T cultured cell strain having no TAP peptide transporter and expressing the HLA-A*2402 gene: supplied by Dr. Tsuboi, Faculty of Medicine, Osaka University) at 37° C. or 26° C. for 1 hour. Peptides of SEQ ID NOS: 1 to 14 were added thereto so as to make final concentrations of 1 μM, thus forming target cells having each peptide binding to the surface of the cells.
After the cytotoxic T-cells and the target cells prepared above were mixed at an E/T ratio (effector to target) of 10 to 20 and allowed to stand at 37° C. for 3.5 hours, the radioactivity of ^51Cr released in the culture supernatant was measured.
As to FWAKMMYNF [SEQ ID NO: 14], the “capability of inducing cytotoxic T-cells” value is “did not show a capability of inducing cytotoxic T-cells; also recorded: none of the blood samples showed a capability of inducing cytotoxic T-cells”.

Another series addresses HLA-A24 molecule (product of the HLA-A*2402 gene) (Homo sapiens, UniProt P04439, D101N/D140Y/D185E/E176V/E190D/F33S/G103R/G107R/I119L/I121M/I306V/K335N/L105A/L180Q/L300P/N151K/N90K/Q86E/Q94H/R106L/R138H/R89G/T104I/T345S/V100E/W191G/Y123F). Kind of series: Experiment of binding peptide to HLA-A24 molecule (C1R-A24 cells, flow cytometry).
Details: not given
(In general: Flow cytometry measures light scatter and fluorescence of single cells or particles in a stream.)
Take FWAKMMYNF [SEQ ID NO: 14]: the “binding in HLA molecule binding experiment” value is recorded as “high binding”.

Source of the values: patent US20110206711A1, “METHOD FOR INDUCING CYTOTOXIC T-CELLS, CYTOTOXIC T-CELL INDUCER, AND PHARMACEUTICAL COMPOSITION AND VACCINE EMPLOYING SAME” (priority 2006, published 2011).
